Experimental data published in US12521378B2, “Administration of R-beta-hydroxybutyrate salt blend and related compounds in humans” (priority 2016, dated 2026).

Columns and labels:
[1] = blood ketone level over time after administration of sodium beta-hydroxybutyrate; type: in vivo, human; details: 5 mg of sodium R-beta-hydroxybutyrate (so in the source); average of 4 subjects; 30, 60, 90, 120 and 180 minutes
[2] = blood ketone levels after R-, L- or D,L-beta-hydroxybutyrate; type: in vivo, human; details: 5 g or 10 mg (so in the source)
Procedure: Individuals were 5 g or 10 mg of R-beta-hydroxybutyrate, L-beta-hydroxybutyrate, or D,L-beta-hydroxybutyrate and blood ketone levels were measured.

[3] = glucose challenge test, blood ketone levels; type: in vivo, human; details: 250 mg DHBB alone or with 5 mg sodium beta-hydroxybutyrate; one subject; 120 minutes
Procedure: A subject was subject to a glucose challenge test (75 g glucose) after administration of 250 mg dihydroberberine (DHBB) and a glucose challenge test after administration of 250 mg dihydroberberine (DHBB) along with 5 mg of beta-hydroxybutyrate (e.g., 5 mg sodium beta-hydroxybutyrate).

[4] = glucose challenge test (75 g glucose), blood glucose levels; type: in vivo, human
Procedure: Five subjects were subject to three separate glucose challenge tests (75 g glucose) after administration of 500 mg berberine (BB), 250 mg of dihydroberberine (DHBB) or 500 dihydroberberine. Blood was drawn prior to administration and after 30, 60, 90, 120, and 180 minutes. FIG. 1 illustrates the results of the administration protocol. FIG. 1 illustrates the average blood glucose level of the 5 subjects at each of the times.
As in Example 1, five subjects were subject to three separate glucose challenge tests (75 g glucose) after administration of 500 mg berberine (BB), 250 mg of dihydroberberine (DHBB) or 500 dihydroberberine. FIG. 2 illustrates a ranking which compositions caused the lowest blood glucose levels during a oral glucose challenge. […] For example, in some individuals (e.g., individuals with moderate glucose tolerance) may achieve better blood glucose control when administered a lower dosage of DHBB.
Five subjects were subject to three separate glucose challenge tests (75 g glucose) approximately 25 minutes after administration of 500 mg berberine (BB), 250 mg of dihydroberberine (DHBB) or 500 dihydroberberine. Blood was drawn prior to administration and after 30, 60, 90, 120, and 180 minutes and tested for glucose levels. FIG. 4 illustrates the results of the administration protocol.

[5] = mental acuity testing (tracking, saccades, processing speed, response accuracy); type: in vivo, human
Procedure: Processing speed testing was performed (e.g, processing speed is considered a true measure of cognitive performance). […] Response accuracy was also tested.

[6] = Bench Press strength and power testing at 50% of 1-RM; type: in vivo, human; details: 5 g; for increase in minimum power: averages of power measurements
Procedure: FIGS. 19A-19B illustrate the results of the testing. […] Thus, R-beta-hydroxybutyrate experienced a greater than expected impact when compared with D,L-beta-hydroxybutyrate. The individuals were also tested for power. FIG. 19C illustrates the results of the testing (e.g., averages of power measurements). As illustrated, R-beta-hydroxybutyrate administration increased minimum power by 26%, while the DL-beta-hydroxybutyrate administration raised power by 2%.

[7] = lifespan of rats on low-fat standard American diet; type: in vivo, Fischer 344 rats; details: supplemented versus standard diet at 20 months
Text: Sixteen rats (Fischer 344 rats) were studied for the effect of R-beta-hydroxybutyrate on lifespan. A first grouping of eight rats were fed an equivalent to a low-fat standard American diet and a second grouping of eight rats were fed the same equivalent to a low-fat standard American diet and supplemented with R-beta-hydroxybutyrate salt (e.g., sodium R-beta-hydroxybutyrate). The second grouping of rats were supplemented with the R-beta-hydroxybutyrate salt at middle age. FIG. 7 illustrates the average lifespans of the groupings of rats. […] Since the rat study was performed as an approximation of impact in humans, the addition of R-beta-hydroxybutyrate to a standard American low-fat diet may increase lifespan.

[8] = fasting glucose after administration; type: in vivo, human; details: same individual; 104 before administration
Procedure: (§1) An individual with high C-reactive protein, which is associated with inflammation, was administered R-beta-hydroxybutyrate. […] In addition, fasting glucose was decreased (e.g., 104 to 95).

[9] = Xray absorptiometry, fat mass and lean mass; type: in vivo, human; details: 5 g twice daily for 3 months; one individual
Procedure: Xray absorptiometry was performed to determine the impact of the administration of R-beta-hydroxybutyrate on fat loss. […] As illustrated, the individual experienced a greater than approximately 10% decrease in fat mass. […] Thus, the R-beta-hydroxybutyrate may cause weight loss through fat loss rather than lean mass (e.g., muscle mass).

[10] = motor function testing by eye movements in an individual with Parkinson's disease; type: in vivo, human; details: approximately 10 g; approximately 30 minutes after administration; one Parkinson's patient, pre vs post
Text: The testing included a right-eye visual and motor performance apparatus to track motor function through eye movements. FIG. 8 illustrates chart illustrating the results of the motor skill testing following an example implementation of administration of R-beta-hydroxybutyrate. FIG. 8 illustrates average results for a similar non-Parkinson's population, the patient pre-administration of R-beta-hydroxybutyrate, and the patient post-administration of R-beta-hydroxybutyrate.

superoxide dismutase 2 = superoxide dismutase 2 levels in the brain; type: in vivo; details: e.g. 10 g; standard or ketogenic diet
Procedure: Individuals were given a standard diet or ketogenic diet. Some individuals were administered R-beta-hydroxybutyrate (e.g., 10 g).

C-reactive protein = C-reactive protein levels after administration; type: in vivo, human; details: one individual with high C-reactive protein; 62.5 before administration
Procedure: as §1

[11] = Respiratory exchange ratio (RER); type: in vivo, human; details: 10 subjects
Procedure: 10 subjects were administered approximately 5 g or 10 g of D,L-beta-hydroxybutyrate or R-beta-hydroxybutyrate, and Respiratory exchange ratio was examined (RER, a ratio of carbon dioxide/oxygen).

[12] = perceived hunger, satiety and perceived energy; type: in vivo, human
Procedure: FIGS. 18A-18C illustrate the results of the testing. FIG. 18A illustrates perceived hunger, FIG. 18B illustrates perceived satiety, and FIG. 18C illustrates perceived energy. […] R-beta-hydroxybutyrate sustained elevated perceived energy levels from 0 minutes at 60, 90, and 120 minutes post consumption, as opposed to D,L-beta-hydroxybutyrate.

Lipoprotien lipase (LPL) = experiment: average Lipoprotien lipase (LPL) in rats; type: in vivo; details: standard diet plus salt equivalent to 5 g or 10 g; 10 rats per grouping
Text: FIG. 11 illustrates the average Lipoprotien lipase (LPL) in the rats. Since LPL is needed to transport fat into adipose tissue, lowering LPL levels would inhibit fat storage and encourage usage of fat storages.

[13] = 2 km time test on wingate cycle ergometer; type: in vivo, human; details: 10 g, 30 minutes before 2 km time test
Procedure: Five healthy individual were given a 2 km time test (e.g., 4 cycles of low to severely intense exercise on a […] ergometer) 30 minutes after administration of a placebo, 10 g of R-beta-hydroxybutyrate, and 10 g of […]. FIG. 12 illustrates the average blood ketone levels and FIG. 13 illustrates the percentage improvement over the administration of the placebo. […] FIG. 14 illustrates the perceived exertion experienced by the individuals. […] Thus, the R-beta-hydroxybutyrate has an unexpectedly impact on ketone levels and performance.

[14] = before vs after, 5 resistance trained males, 50% of 1-RM

## C[C@@H](O)CC(=O)[O-].[Na+] [sodium R-beta-hydroxybutyrate]
[1]
  blood ketone level compared with 10 g of D,L-beta-hydroxybutyrate: approximately the same blood ketone level

## C[C@H](O)CC(=O)O [L-beta-hydroxybutyrate]
[2]
  blood ketone levels: does not decrease blood ketones

## COc1ccc2c(c1OC)CN1CCc3cc4c(cc3C1=C2)OCO4 [dihydroberberine]
[3]
  blood ketone levels after glucose challenge: unexpectedly increased even 120 minutes after the glucose challenge
[4]; 250 mg DHBB vs 500 mg DHBB, 5 subjects
  control of blood glucose levels during oral glucose challenge (ranking): control blood glucose levels better than even 500 mg of DHBB
[4]; 250 mg or 500 dihydroberberine vs 500 mg berberine, 5 subjects
  blood glucose during oral glucose challenge versus berberine: lower blood glucose than administration of berberine in most individuals
[4]; 75 g glucose challenge, 250 mg or 500 dihydroberberine vs 500 mg berberine, average of 5 subjects, 30-180 minutes
  fluctuations in blood glucose level: less fluctuations in blood glucose level than berberine
[4]; 75 g glucose challenge, dihydroberberine vs 500 mg berberine, 5 subjects
  blood glucose levels relative to fasting blood glucose: keep blood glucose levels closer to fasting blood glucose than berberine
[4]; individuals with moderate baseline glucose levels, glucose challenge about 25 minutes after administration, vs 500 mg berberine
  moderation of blood glucose levels: moderates blood glucose levels better than even double the quantity of berberine

## C[C@@H](O)CC(=O)O [R-beta-hydroxybutyrate, (R)-3-Hydroxybutyric acid]
[5]; e.g. 5 g
  Horizontal Saccades, improvement relative to D,L-beta-hydroxybutyrate: 4 times
  Horizontal Saccades, performance improvement: 13.8%
  improvement of processing speed: 27.7%
  increase of response accuracy: 37 percentage points
[5]; e.g. 10 g
  Circular Tracking, improvement in tracking accuracy: approximately 3%
  Vertical Tracking, improvement of performance: 13.8%
  Vertical Tracking, improvement relative to D,L-beta-hydroxybutyrate: approximately 3 times
[6]
  increase in minimum power: 26%
[6]; [14]
  increase in Bench Press test result: 11%
[7]
  rats with increased lifespan: ≥ 38.5%
[8]
  fasting glucose after administration: 95
[9]
  decrease in fat mass: > 10%
  lean mass: maintaining lean mass
[10]
  motor function: increased motor function
Superoxide dismutase 2
  superoxide dismutase 2 levels (SOD) in the brain: numerically increase superoxide dismutase 2 levels
C-reactive protein
  C-reactive protein levels after administration: 4.4
[11]; 10 g
  reduction of RER relative to D,L-beta-hydroxybutyrate: approximately 3 ×
[12]; 0 to 30 minutes post consumption, 5 g-10 g
  improvement of perceived energy relative to D,L-beta-hydroxybutyrate: double that of D,L-beta-hydroxybutyrate
[12]; 5 g-10 g
  raise of perceived energy: 18%
[12]; 30 minutes post consumption, relative to baseline, 5 g-10 g
  improvement of satiety levels relative to DL-beta-hydroxybutyrate: 2.3 ×
[12]; in vivo
  raise of perceived energy relative to peak increase with DL-beta-hydroxybutyrate: more than 2 times
[12]; post ingestion
  time for which raised perceived energy was sustained: 2 h
Lipoprotien lipase (LPL)
  LPL levels: decreases LPL levels
[13]
  perceived exertion: perceived exertion improvement
[13]; five healthy individuals
  blood ketone levels compared with D,L-beta-hydroxybutyrate: increased more than double
[13]; improvement over placebo
  performance (improvement in time) compared with D,L-beta-hydroxybutyrate: increased by more than double

## CC(O)CC(=O)O (racemic) [D,L-beta-hydroxybutyrate, reference compound]
[5]; DL-beta-hydroxybutyrate
  increase of response accuracy: 12.7%
[5]; e.g. 5 g
  Horizontal Saccades, performance improvement: 3.2%
  improvement of processing speed: approximately 18%
[5]; e.g. 10 g
  Circular Tracking, improvement in tracking accuracy: no improvement
  Vertical Tracking, improvement of performance: 4.6%
[6]
  increase in minimum power: 2%
[6]; [14]
  decrease in Bench Press test result: 2%
[11]; D,L-beta-hydroxybutyrate, more than 5 g
  increase of RER: 17%
[13]
  perceived exertion: did not feel an impact in perceived exertion
[2]
  blood ketone levels: does not lower blood ketone levels to the same extent as R-beta-hydroxybutyrate
